Measured values as given in paper PMC10023787, “Trio-pharmacophore DNA-encoded chemical library for simultaneous selection of fragments and linkers” (Nature Communications, 2023).
Where two headings read alike, the source gives them in different places. One block for each molecule: values may come before it.

Legend:
MMP-2 = target: T1, MMP-2 (Homo sapiens, UniProt P08253); assay: MMP-2 inhibition assay (fluorogenic peptide substrate); assay type: biochemical
T1 construct: purchased Sino Biological 10082-HNAH
T1 sequence (P08253 110-660): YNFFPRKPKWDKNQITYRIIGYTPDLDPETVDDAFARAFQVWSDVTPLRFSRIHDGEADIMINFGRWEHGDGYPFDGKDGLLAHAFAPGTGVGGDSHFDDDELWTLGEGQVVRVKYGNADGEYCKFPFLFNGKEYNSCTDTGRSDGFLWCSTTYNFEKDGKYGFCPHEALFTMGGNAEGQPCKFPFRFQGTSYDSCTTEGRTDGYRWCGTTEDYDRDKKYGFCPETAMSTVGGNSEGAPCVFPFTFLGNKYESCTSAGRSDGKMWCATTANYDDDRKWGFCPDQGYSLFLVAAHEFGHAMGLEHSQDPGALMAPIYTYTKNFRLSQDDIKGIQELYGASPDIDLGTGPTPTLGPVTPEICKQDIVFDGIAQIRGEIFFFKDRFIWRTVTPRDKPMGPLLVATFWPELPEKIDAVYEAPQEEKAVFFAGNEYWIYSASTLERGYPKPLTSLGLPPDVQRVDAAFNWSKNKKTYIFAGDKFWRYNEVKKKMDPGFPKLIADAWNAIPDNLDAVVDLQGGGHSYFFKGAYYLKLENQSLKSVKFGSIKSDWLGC
Procedure, shortened: (§1)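 Human proMMP-2 and proMMP-9 were activated with 1 mM APMA (37 °C, 2 h), then used at 6.5 nM (MMP-2) or 10 nM (MMP-9) in Tris/NaCl/CaCl2/Brij 35 buffer, pH 7.5. Enzyme was preincubated with compound 30 min at RT; 25 μM DNP-Pro-Leu-Gly-Met-Trp-Ser-Arg substrate was added and fluorescence (ex 280/em 360 nm) followed 30 min. IC50 from logistic fits of Vmax.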

MMP-9 = target: T2, MMP-9 (Homo sapiens, UniProt P14780); assay: MMP-9 inhibition assay (fluorogenic peptide substrate); assay type: biochemical; design: remaining enzyme activity (% of control): scale not given here
T2 construct: purchased Sino Biological 10327-HNAH
T2 sequence (P14780 107-707 limits assumed): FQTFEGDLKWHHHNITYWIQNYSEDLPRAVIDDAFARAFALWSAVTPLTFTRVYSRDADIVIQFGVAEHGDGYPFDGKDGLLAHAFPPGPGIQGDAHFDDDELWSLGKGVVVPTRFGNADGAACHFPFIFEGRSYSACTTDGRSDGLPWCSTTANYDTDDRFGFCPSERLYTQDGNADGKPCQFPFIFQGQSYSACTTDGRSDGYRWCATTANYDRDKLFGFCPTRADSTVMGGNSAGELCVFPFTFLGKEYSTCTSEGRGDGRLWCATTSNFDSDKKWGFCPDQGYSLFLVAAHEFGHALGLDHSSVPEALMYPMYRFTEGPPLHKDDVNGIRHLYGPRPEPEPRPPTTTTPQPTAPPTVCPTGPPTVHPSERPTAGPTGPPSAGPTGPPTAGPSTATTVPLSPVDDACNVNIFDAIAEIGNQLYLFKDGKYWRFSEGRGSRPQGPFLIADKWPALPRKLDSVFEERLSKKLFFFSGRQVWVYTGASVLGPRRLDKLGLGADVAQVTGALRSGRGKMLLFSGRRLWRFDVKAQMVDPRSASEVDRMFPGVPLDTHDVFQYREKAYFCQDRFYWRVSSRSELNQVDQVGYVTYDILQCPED
Procedure, shortened: as §1

[1] = mean ± SE; n.d: not detected; Fig. 5d unit inferred, µM; read-out: IC50
[2] = mean ± SE; n.d: not detected; Fig. 5e prints no unit, µM; read-out: IC50
[3] = Figure 5d; fragment combination joined by linker; n.d: not detected; read-out: MMP2 IC50
[4] = Figure 5d; fragment combination joined by linker; n.d: not detected; read-out: MMP9 IC50

remaining activity (%) (MMP-2; MMP-2; concentration 0.12 µM): 98.54
remaining activity (%) (MMP-2; MMP-2; concentration 0.49 µM): 94.49
remaining activity (%) (MMP-2; MMP-2; concentration 1.95 µM): 93.80
remaining activity (%) (MMP-2; MMP-2; concentration 7.81 µM): 81.11
remaining activity (%) (MMP-2; MMP-2; concentration 31.25 µM): 77.57
remaining activity (%) (MMP-2; MMP-2; concentration 125.00 µM): 58.31
remaining activity (%) (MMP-2; MMP-2; concentration 500.00 µM): 52.30
IC50 (MMP-2; [1]): 417 ± 50.3 µM
remaining enzyme activity (% of control) (MMP-9; MMP-9; concentration 0.12 µM): 99.26
remaining enzyme activity (% of control) (MMP-9; MMP-9; concentration 0.49 µM): 96.54
remaining enzyme activity (% of control) (MMP-9; MMP-9; concentration 1.95 µM): 94.32
remaining enzyme activity (% of control) (MMP-9; MMP-9; concentration 7.81 µM): 95.86
remaining enzyme activity (% of control) (MMP-9; MMP-9; concentration 31.25 µM): 95.02
remaining enzyme activity (% of control) (MMP-9; MMP-9; concentration 125.00 µM): 70.00
remaining enzyme activity (% of control) (MMP-9; MMP-9; concentration 500.00 µM): 41.34
IC50 (MMP-9; [2]): 358 ± 114 µM
SMILES: Cc1cc(=O)[nH]c(-n2nc(C)c(CCC(=O)NCCSCC(=O)NCCNC(=O)c3cnc4c(c3)nc(O)n4C)c2C)n1 [693+826 Linker 24]

IC50 (MMP-2; [3]): 339 µM
IC50 (MMP-9; [4]): 115 µM
SMILES: O=C(C=CCCCCC(=O)NCc1c[nH]nn1)CC(=O)NCC12CC3CC(CC(C3)C1)C2 [66_787 12]

remaining activity (%) (MMP-2; MMP-2, concentration 0.0117 µM): 98.76
remaining activity (%) (MMP-2; MMP-2, concentration 0.06 µM): 98.75
remaining activity (%) (MMP-2; MMP-2, concentration 0.29 µM): 92.92
remaining activity (%) (MMP-2; MMP-2, concentration 1.46 µM): 80.34
remaining activity (%) (MMP-2; MMP-2, concentration 7.32 µM): 73.36
remaining activity (%) (MMP-2; MMP-2, concentration 36.60 µM): 63.34
remaining activity (%) (MMP-2; MMP-2, concentration 183.00 µM): 14.49
remaining activity (%) (MMP-2; MMP-2, concentration 915.00 µM): 0.00
IC50 (MMP-2; [1]): 43 ± 19.3 µM
remaining enzyme activity (% of control) (MMP-9; MMP-9, concentration 0.06 µM): 97.14
remaining enzyme activity (% of control) (MMP-9; MMP-9, concentration 0.29 µM): 97.22
remaining enzyme activity (% of control) (MMP-9; MMP-9, concentration 1.46 µM): 90.75
remaining enzyme activity (% of control) (MMP-9; MMP-9, concentration 7.32 µM): 93.96
remaining enzyme activity (% of control) (MMP-9; MMP-9, concentration 36.60 µM): 74.71
remaining enzyme activity (% of control) (MMP-9; MMP-9, concentration 183.00 µM): 29.12
remaining enzyme activity (% of control) (MMP-9; MMP-9, concentration 915.00 µM): 0.00
IC50 (MMP-9; [2]): 99.6 ± 31.7 µM
SMILES: O=C(Cn1cnc2c(oc3ccccc32)c1=O)NCCOCCOCCNC(=O)c1cncc(O)c1 [182+828 Linker 10]

IC50 (MMP-2; [3]): 50.3 µM
IC50 (MMP-9; [4]): 45.9 µM
SMILES: O=C(/C=C/CCCCNC(=O)c1cncc(O)c1)CC(=O)NCCNC(=O)Cn1cnc2c(oc3ccccc32)c1=O [182_828 12]

IC50 (MMP-2; [3]): 171 µM
IC50 (MMP-9; [4]): 230 µM
SMILES: Cc1cc(=O)[nH]c(-n2nc(C)c(CCC(=O)NCCOCCOCCNC(=O)CCC(=O)NCc3c[nH]nn3)c2C)n1 [693_787 10]

remaining activity (%) (MMP-2; MMP-2, concentration 0.0156 µM): 89.30
remaining activity (%) (MMP-2; MMP-2, concentration 0.08 µM): 95.29
remaining activity (%) (MMP-2; MMP-2, concentration 0.39 µM): 92.88
remaining activity (%) (MMP-2; MMP-2, concentration 1.95 µM): 92.98
remaining activity (%) (MMP-2; MMP-2; concentration 9.75 µM): 84.05
remaining activity (%) (MMP-2; MMP-2; concentration 48.76 µM): 61.94
remaining activity (%) (MMP-2; MMP-2; concentration 243.80 µM): 24.12
remaining activity (%) (MMP-2; MMP-2; concentration 1219.00 µM): 0.00
IC50 (MMP-2; [1]): 95.5 ± 35.1 µM
remaining enzyme activity (% of control) (MMP-9; MMP-9, concentration 0.08 µM): 89.67
remaining enzyme activity (% of control) (MMP-9; MMP-9, concentration 0.39 µM): 88.12
remaining enzyme activity (% of control) (MMP-9; MMP-9, concentration 1.95 µM): 85.78
remaining enzyme activity (% of control) (MMP-9; MMP-9, concentration 9.75 µM): 75.76
remaining enzyme activity (% of control) (MMP-9; MMP-9, concentration 48.76 µM): 77.96
remaining enzyme activity (% of control) (MMP-9; MMP-9, concentration 243.80 µM): 22.66
remaining enzyme activity (% of control) (MMP-9; MMP-9, concentration 1219.00 µM): 0.00
IC50 (MMP-9; [2]): 143 ± 32.6 µM
SMILES: O=C(Cn1cnc2c(oc3ccccc32)c1=O)NCc1c[nH]nn1 [182+787 Linker 1]

remaining activity (%) (MMP-2; MMP-2; concentration 0.12 µM): 103.13
remaining activity (%) (MMP-2; MMP-2; concentration 0.49 µM): 90.37
remaining activity (%) (MMP-2; MMP-2; concentration 1.95 µM): 90.36
remaining activity (%) (MMP-2; MMP-2; concentration 7.81 µM): 93.51
remaining activity (%) (MMP-2; MMP-2; concentration 31.25 µM): 77.90
remaining activity (%) (MMP-2; MMP-2; concentration 125.00 µM): 65.75
remaining activity (%) (MMP-2; MMP-2; concentration 500.00 µM): 29.31
IC50 (MMP-2; [1]): 210 ± 35.3 µM
remaining enzyme activity (% of control) (MMP-9; MMP-9; concentration 0.12 µM): 100.00
remaining enzyme activity (% of control) (MMP-9; MMP-9; concentration 0.49 µM): 80.27
remaining enzyme activity (% of control) (MMP-9; MMP-9; concentration 1.95 µM): 83.12
remaining enzyme activity (% of control) (MMP-9; MMP-9; concentration 7.81 µM): 88.09
remaining enzyme activity (% of control) (MMP-9; MMP-9; concentration 31.25 µM): 65.00
remaining enzyme activity (% of control) (MMP-9; MMP-9; concentration 125.00 µM): 27.22
remaining enzyme activity (% of control) (MMP-9; MMP-9; concentration 500.00 µM): 12.87
IC50 (MMP-9; [2]): 58.9 ± 10.5 µM
SMILES: Cc1cc(=O)[nH]c(-n2nc(C)c(CCC(=O)NCCNC(=O)CC(=O)C=CCCCCNC(=O)c3cnc4c(c3)nc(O)n4C)c2C)n1 [693+826 Linker 12]
